Reference: US4963553A, “4-[(substituted) alkylcarbonyl]-4,5-dihydro- and -4,5,6,7-tetrahydro-7-[(substituted)phenyl]pyrazolo[1,5-a]pyrimidines” (American Cyanamid Co., priority 1988, dated 1990)
Counter-ions that a name gives are not always drawn.

Test system: mice (hypoxic environment)
Assay: Hypoxic survival test
Format: in vivo, mouse (Royal Hart)
Details: 10% oxygen; for responders at 100 mg/kg / % Survivors: 100 mg/kg
Procedure: The hypoxic survival test is a useful in vivo test for measuring the effectiveness of central nervous system-acting drugs in enhancing survival in an hypoxic environment relative to the known parasympathomimetic agent physostigmine.
Drugs are tested by intraperitoneal injection of groups of mice 30 minutes prior to placing them in an hypoxic environment and measuring survival. The rationale of this test is that drugs which enhance survival under hypoxic conditions without concomitant depression or sedative side effects, do so by enhancing brain metabolism, i.e., by improving energy supply relative to demand and so preserving normal brain function under conditions of reduced energy metabolism. Considering the dependence of the brain on a constant supply of energy, drugs which have this property may have many far-reaching therapeutic indications, including aiding recovery from stroke and closed head injury and reducing the deleterious effects of age-related central nervous system deficits.
In the hypoxic survival test, groups of 20 Royal Hart mice (6 weeks of age) were injected intraperitoneally with a test compound in saline at various doses ranging from 1 to 200 mg/kg, 30 minutes prior to placing them in an hypoxic mixture (10% oxygen, 90% […]) and measuring survival after 5 minutes.
A control group of 20 mice was injected intraperitoneally with saline (0.01 ml/g of body weight) and processed as described above.
Another group of 20 mice was injected intraperitoneally with 0.125 mg/kg of physostigmine in saline and processed as described above.

[1] = Mus musculus, ip, 5 min, intraperitoneal, 5 minutes, read-out: % Survivors

SMILES	responders at 100 mg/kg [1]	also measured
N#Cc1cnn2c1N(C(=O)CN1CCN(C(=O)Nc3ccc(F)cc3F)CC1)CC=C2c1cccc(C(F)(F)F)c1 [Example 107]	20%	
N#Cc1cnn2c1N(C(=O)CN1CCN(C(=O)OCc3ccccc3)CC1)CC=C2c1cccc(C(F)(F)F)c1 [Example 158, 4-[2-[3-Cyano-7-[3-(trifluoromethyl)phenyl]pyrazolo[1,5-a]pyrimidin-4(5H)-yl]-2-oxoethyl]-1-piperazinecarboxylic acid, phenylmethyl ester]	55%	
CC1=C(c2cccc(Cl)c2)n2ncc(C#N)c2N(C(=O)CN2CCN(Cc3cccc(Cl)c3)CC2)C1 [Example 131, 7-(3-Chloroohenyl)-4-[[4-[(3-Chlorophenyl)methyl-1-piperazinyl]acetyl]4,5-dihydro-6-methylpyrazolo[1,5-a]pyrimidine-3-carbonitrile, dihydrochloride]	77%	responders at 50 mg/kg (Mus musculus, ip, 5 min, 50 mg/kg, intraperitoneal, 5 minutes, read-out: % Survivors): 73%
Cc1cccc(C2=CCN(C(=O)CN3CCN(Cc4ccccc4)CC3)c3c(C#N)cnn32)c1 [Example 149, 4,5-Dihydro-7-(3-methylphenyl)-4-[[4-(phenylmethyl)-1-piperazinyl]acetyl]pyrazolo[1,5-a]pyrimidine-3-carbonitrile, hydrochloride]	55%	
N#Cc1cnn2c1N(C(=O)CN1CCN(Cc3ccccc3C(F)(F)F)CC1)CC=C2c1cccc(C(F)(F)F)c1 [Example 151, 4,5-Dihydro-7-[3-(trifluoromethyl)phenyl]-4-[[4-[[2-(trifluoromethyl)phenyl]methyl]-1-piperazinyl]acetyl]pyrazolo[1,5-a]pyrimidine-3-carbonitrile]	20%	
O=C(CN1CCN(Cc2ccccc2)CC1)N1CC=C(c2cccc(C(F)(F)F)c2)n2ncc(Br)c21 [Example 76, 3-Bromo-4,5-dihydro-4-[[4-(phenylmethyl)-1-piperazinyl]acetyl]-7-[3-(trifluoromethyl)phenyl]pyrazolo[1,5-a]pyrimidine]	35%	
N#Cc1cnn2c1N(C(=O)CN1CCN(Cc3cccc(C(F)(F)F)c3)CC1)CC=C2c1cccc(C(F)(F)F)c1 [Example 128, 4,5-Dihydro-4-[[4-[(3-trifluoromethylphenyl)methyl]-1-piperazinyl]acetyl]-7-[3-(trifluoromethyl)phenyl]pyrazolo[1,5-a]pyrimidine-3-carbonitrile]		% Survivors (intraperitoneal, 5 minutes): 40%
N#Cc1cnn2c1N(C(=O)CN1CCN(C(c3ccc(F)cc3)c3ccc(F)cc3)CC1)CC=C2c1cccc(C(F)(F)F)c1 [Example 88, 4-[[4-[Bis(4-Fluorophenyl)methyl]-1-piperazinyl]acetyl]-4,5-dihydro-7-[3-(trifluoromethyl)phenyl]pyrazolo[1,5-a]pyrimidine-3-carbonitrile, dihydrochloride]	55%	
N#Cc1cnn2c1N(C(=O)CN1CCN(C(=O)Nc3ccc(Cl)c(C(F)(F)F)c3)CC1)CC=C2c1cccc(C(F)(F)F)c1 [Example 106, N-[4-Chloro-3-(trifluoromethyl)phenyl]-4-[2-[3-cyano-7-[3-(trifluoromethyl)phenyl)pyrazolo[1.5-a]pyrimidin-4(5H)-yl]-2-oxoethyl]-1-piperazinecarboxamide]	15%	
Cl.Cl.N#Cc1cnn2c1N(C(=O)CN1CCN(CCc3ccccc3)CC1)CC=C2c1cccc(C(F)(F)F)c1 [Example 132, 4,5-Dihydro-4-[[4-(2-phenylethyl)-1-piperazinyl)acetyl]-7-[3-(trifluoromethyl)phenyl]pyrazolo[1,5-a]pyrimidine-3-carbonitrile, dihydrochloride]		% Survivors (intraperitoneal, 5 minutes): 60%
CC1=C(c2cccc(Cl)c2)n2ncc(C#N)c2N(C(=O)CN2CCN(Cc3ccccc3)CC2)C1 [Example 113, 7-(3-Chlorophenyl)-4.5-dihydro-6-methyl-4-[[4-(phenylmethyl)piperazinyl]acetyl]pyrazolo[1,5-a]pyrimidine-3-carbonitrile, dihydrochloride]	30%	
CC1C=C(c2cccc(C(F)(F)F)c2)n2ncc(C#N)c2N1C(=O)CN1CCN(Cc2ccccc2)CC1 (stereo not shown) [Example 95, 4,5-Dihydro-5-methyl-4-[[4-(phenylmethyl)-1-piperazinyl]acetyl]-7-[3-(trifluoromethyl)phenyl]pyrazolo[1,5-a]pyrimidine-3-carbonitrile, dihydrochloride]	43%	
N#Cc1cnn2c1N(C(=O)CN1CCN(Cc3ccccc3C(F)(F)F)CC1)CC=C2c1ccc(Cl)cc1 [Example 59, 7-(4-Chlorophenyl)-4,5-dihydro-4-[[4-[[2-(trifluoromethyl)phenyl]methyl]-1-piperazinyl]acetyl]pyrazolo[1,5-a]pyrimidine-3-carbonitrile]	90%	responders at 10 mg/kg [1]: 55%
CC1=C(c2cccc(C(F)(F)F)c2)n2ncc(C#N)c2N(C(=O)CN2CCN(Cc3ccccc3)CC2)C1 [Example 111, 4,5-Dihydro-6-methyl-4-[[4-(phenylmethyl)-1-piperazinyl]acetyl]-7-[3-(trifluoromethyl)phenyl]pyrazolo[1.5-a]pyrimidine-3-carbonitrile. dihydrochloride]	73%	
N#Cc1cnn2c1N(C(=O)CN1CCN(C(=O)c3ccccc3)CC1)CC=C2c1cccc(C(F)(F)F)c1 [Example 68, 4-[[4-Benzoyl-1-piperazinyl)acetyl]-4,5-dihydro-7-[3-(trifluoromethyl)phenyl]pyrazolo[1,5-a]pyrimidine-3-carbonitrile]	95%	
CC1C=C(c2cccc(C(F)(F)F)c2)n2ncc(C#N)c2N1C(=O)CN1CCN(Cc2ccccc2)CC1 (stereo not shown) [Example 72, 4,5-Dihydro-5-methyl-4-[[4-(phenylmethyl)-1-piperazinyl]acetyl]-7-[3-(trifluoromethyl)phenyl]pyrazolo[1,5-a]pyrimidine-3-carbonitrile]		% Survivors (intraperitoneal, 5 minutes): 25%
CCC1=C(c2cccc(C(F)(F)F)c2)n2ncc(C#N)c2N(C(=O)CN2CCN(Cc3ccccc3)CC2)C1 [Example 140, 4,5-Dihydro-6-ethyl-4[[4-(phenylmethyl)-1-piperazinyl]acetyl]7-[3-(trifluoromethyl)phenyl]pyrazolo[1,5-a]pyrimidine-3-carbonitrile]		responders at 200 mg/kg (Mus musculus, ip, 5 min, 200 mg/kg, intraperitoneal, 5 minutes, read-out: % Survivors): 42%
CNC(=O)Oc1ccc2c(c1)[C@]1(C)CCN(C)[C@@H]1N2C [physostigimine, reference compound]		mice surviving (physostigmine-treated) (after 5 minutes, physostigmine group 0.125 mg/kg intraperitoneal): 60-80%
N#Cc1cnn2c1N(C(=O)CN1CCN(C3CCC3)CC1)CC=C2c1cccc(C(F)(F)F)c1 [Example 91, 4-[(4-Cyclobutyl-1-piperazinyl)acetyl]-4,5-dihydro-7-[3-(trifluoromethyl)phenyl]pyrazolo[1,5-a]pyrimidine-3-carbonitrile, dihydrochloride]		responders at 10 mg/kg [1]: 55%
CC1=C(c2cccc(Cl)c2)n2ncc(C#N)c2N(C(=O)CN2CCN(Cc3cccc(C(F)(F)F)c3)CC2)C1 [7-(3-Chlorophenyl)-4,5-dihydro-6-methyl-4-[[4-[[3-(trifluoromethyl)phenyl]methyl]-1-piperazinyl]acetyl]pyrazolo[1,5-a]pyrimidine-3-carbonitrile, sesquihydrochloride]	35%	
N#Cc1cnn2c1N(C(=O)CN1CCN(Cc3ccccc3F)CC1)CC=C2c1cccc(C(F)(F)F)c1 [Example 156, 4-[[4-[(2-Fluorophenyl)methyl]-1-piperazinyl]acetyl]4,5-dihydro-7-[3-(trifluoromethyl)phenyl]pyrazolo[1,5-a]pyrimidine-3-carbonitrile]	55%	
N#Cc1cnn2c1N(C(=O)CN1CCN(Cc3cccc(Cl)c3)CC1)CCC2c1cccc(C(F)(F)F)c1 (stereo not shown) [Example 53, 4-[[4-[(3-Chlorophenyl)methyl]-1-piperazinyl]acetyl]-4,5,6,7-tetrahydro-7-[3-(trifluoromethyl)phenyl]pyrazolo[1,5-a]pyrimidine-3-carbonitrile]	15%	
N#Cc1cnn2c1N(C(=O)CN1CCN(Cc3ccccc3)CC1)CC=C2c1cc(Cl)ccc1Cl [Example 62, 7-(2,5-Dichlorophenyl)-4,5-dihydro-4-[[4-(phenylmethyl)-1-piperazinyl]acetyl]pyrazolo[1,5-a]pyrimidine-3-carbonitrile]	50%	
N#Cc1cnn2c1N(C(=O)CN1CCN(c3ccccc3)CC1)CC=C2c1cc(Cl)ccc1Cl [7-(2,5-Dichlorophenyl)-4,5-dihydro-4-[(4-phenyl-1-piperazinyl)acetyl]pyrazolo[1,5-a]pyrimidine-3-carbonitrile]	70%	
O=C(CN1CCN(Cc2ccccc2)CC1)N1CC=C(c2cccc(C(F)(F)F)c2)n2ncc(Cl)c21 [Example 155, 3-Chloro-4,5-dihydro-4-[[4-(phenylmethyl-1-piperazinyl]acetyl]-7-[3-trifluoromethyl)phenylpyrazolo[1,5-a]pyrimidine, dihydrochloride]	25%	
N#Cc1cnn2c1N(C(=O)CN1CCN(c3ccc(F)cc3)CC1)CC=C2c1cccc(C(F)(F)F)c1 [Example 153, 4-[[4-(4-Fluorophenyl)-1-piperazinyl]acetyl]4,5-dihydro-7-[3-(trifluoromethyl)phenyl]pyrazolo[1,5-a]pyrimidine-3-carbonitrile, monohydrochloride]	35%	
